The text below walks through data of US11259516B2, “Method and apparatus for capsular delivery to plants” (priority 2017, dated 2022).

The subject of data set [1] is Pittosporum undulatum (Sweet pittosporum). Also on record: key: X indicates that the given herbicide is suitable for controlling the given weed. The note with it: cited from earlier work.
Data set [2] relates to Schinus terebinthifolius (Broad-leafed pepper tree). Also on record: key: X indicates that the given herbicide is suitable for controlling the given weed. As to conditions: cited from earlier work.
In data set [3] the test system is Gleditsia triacanthos (Honey locust). Also on record: key: X indicates that the given herbicide is suitable for controlling the given weed. The note with it: cited from earlier work.
The subject of data set [4] is Solanum mauritianum (Wild tobacco tree). Also on record: key: X indicates that the given herbicide is suitable for controlling the given weed. As to conditions: cited from earlier work.
Data set [5] relates to Toxicodendron succedaneum (Rhus). Also on record: key: X indicates that the given herbicide is suitable for controlling the given weed. As to conditions: cited from earlier work.
The subject of the next data set is Acer negudo (Box elder). Also on record: key: X indicates that the given herbicide is suitable for controlling the given weed. As to conditions: cited from earlier work.
The test system of data set [6] is Erythrina crista-galli (Cockspur coral tree). Also on record: key: X indicates that the given herbicide is suitable for controlling the given weed. As to conditions: cited from earlier work.
Data set [7] relates to Cestrum parqui (Green cestrum). Also on record: key: X indicates that the given herbicide is suitable for controlling the given weed. As to conditions: cited from earlier work.
The subject of data set [8] is Senegalia catechu (Cutch tree). Also on record: key: X indicates that the given herbicide is suitable for controlling the given weed. The note with it: cited from earlier work.
Data set [9] relates to Tabebuia aurea (Tabebuia). Also on record: key: X indicates that the given herbicide is suitable for controlling the given weed. As to conditions: cited from earlier work.
A further data set relates to Phoenix spp (Palms). Also on record: key: X indicates that the given herbicide is suitable for controlling the given weed. As to conditions: cited from earlier work.
The subject of data set [10] is western white gum (Eucalyptus argophloia). Put plainly: Example 3: glyphosate and glyphosate+imazapyr capsules, thinning trial in western white gum plantation. As to the method:
The trial was established at the HQP plantation near Jandowae on 6 Feb. 2018. The trees were planted in rows 4 m apart at 1.5 m spacing. Trees were 6-10 m tall. Trees to be maintained were marked and the other trees were treated.
Four treatments were used, with capsules as follows:
Capsules and applicator used were as described in Example 2.
Herbicide capsules were applied to approx. 10 trees for each of the treatments. The number of capsules applied to each tree was independent of tree circumference which was measured at chest height. The tree circumferences range was from 12 to 25 centimetres. At 4 weeks, a small sample of trees were cut down with a chainsaw and cross-sections of stems containing the sites of insertion of the herbicide capsules removed. These stem pieces were returned to the laboratory and split open longitudinally through the insertion point. Tree health was assessed at 11 weeks (24 Apr. 2018) on a 0-4 scale with 0 being dead and 4 being healthy. Observations were made for evidence of flashback in untreated trees.

In data set [11] the test system is Cinnamonum camphora (Camphor laurel). Also on record: key: X indicates that the given herbicide is suitable for controlling the given weed. The note with it: cited from earlier work.
Data set [12] concerns Koelreuteria elegans (Golden rain tree). Also on record: key: X indicates that the given herbicide is suitable for controlling the given weed. The note with it: cited from earlier work.
The test system of data set [13] is Triadica sebifera (Chinese tallow tree). Also on record: key: X indicates that the given herbicide is suitable for controlling the given weed. The note with it: cited from earlier work.
Data set [14] has as its system Harungana madagarcariensis (Harungana). Also on record: key: X indicates that the given herbicide is suitable for controlling the given weed. As to conditions: cited from earlier work.
The test system of data set [15] is Celtis sinensis (Chinese celtis). Also on record: key: X indicates that the given herbicide is suitable for controlling the given weed. As to conditions: cited from earlier work.
The subject of data set [16] is Senna pendula (Winter senna). Also on record: key: X indicates that the given herbicide is suitable for controlling the given weed. As to conditions: cited from earlier work.
For data set [17], the system named is Inga edulis (Icecream tree). Also on record: key: X indicates that the given herbicide is suitable for controlling the given weed. As to conditions: cited from earlier work.

As to `O=C(O)CNCP(=O)(O)O` [Glyphosate], the “suitability of herbicide for control of weed” value (shortened to “suitability of herbicide”) (in [1]; in data set [2]; in data set [3]; in data set [4]; in data set [5]; with Acer negudo (Box elder)) was “X” each time. The “suitability of herbicide” value (in data set [6]; in data set [7]; in data set [8]; in data set [9]; in the data set on Phoenix spp (Palms); in data set [11]) was “X” in each case. Moreover, the “suitability of herbicide” value in [12], in [13], in [14], in [15], in [16] and in data set [17] was “X” throughout. Further, in data set [10] (11 week assessment), the “flashback in the trees marked for retention” value is given as “no flashback was observed”. In [10] (11 weeks post treatment, 1 or 2 capsules per tree), the “trees died (health rating 0-4 scale, 0 dead)” value is given as “majority of trees”.
